Values after ≈ are worked out from the molar mass of the structure shown.
system: Mycobacterium tuberculosis; experiment: Antimicrobial activity against Bacille Calmette-Guerin; format: functional; conditions: variant bovis BCG

Row | Compound | MIC
1 | CC(C)=C[C@H]1C[C@H](C)[C@]2(CC[C@]3(C)C[C@@H]4C(C)=CC(=O)[C@]4(O)/C(C=O)=C\C[C@H]32)O1 | 12.5 µg/mL (≈ 31.4 µM)
2 | CC(C)=C[C@H]1C[C@H](C)[C@]2(CC[C@]3(C)C[C@@H]4C(C)=CC(=O)[C@@H]4/C(C=O)=C\C[C@H]32)O1 | > 100 µg/mL
3 | CC(C)=C[C@H]1C[C@H](C)[C@]2(CC[C@]3(C)C[C@@H]4C(C)=CC(=O)[C@H]4/C(C=O)=C\C[C@H]32)O1 [3-ANHYDRO-6-EPI-OPHIOBOLIN A] | > 100 µg/mL
4 | NNC(=O)c1ccncc1 [ISONIAZID] | 0.05 µg/mL (≈ 0.365 µM)
